Laboratory results as given in ChEMBL document CHEMBL5291721, “A preclinical secondary pharmacology resource illuminates target-adverse drug reaction associations of marketed drugs” (Nat Commun, 2023).
One block for each molecule: values may come before it.

Assays:
[1] = molecular target: Prostaglandin G/H synthase 1 (Homo sapiens, UniProt P23219); assay type: functional
D(1A) dopamine receptor = D(1A) dopamine receptor (Homo sapiens, UniProt P21728)
B2 bradykinin receptor = molecular target: T1, B2 bradykinin receptor (Homo sapiens, UniProt P30411)
T1 sequence (P30411 whole entry): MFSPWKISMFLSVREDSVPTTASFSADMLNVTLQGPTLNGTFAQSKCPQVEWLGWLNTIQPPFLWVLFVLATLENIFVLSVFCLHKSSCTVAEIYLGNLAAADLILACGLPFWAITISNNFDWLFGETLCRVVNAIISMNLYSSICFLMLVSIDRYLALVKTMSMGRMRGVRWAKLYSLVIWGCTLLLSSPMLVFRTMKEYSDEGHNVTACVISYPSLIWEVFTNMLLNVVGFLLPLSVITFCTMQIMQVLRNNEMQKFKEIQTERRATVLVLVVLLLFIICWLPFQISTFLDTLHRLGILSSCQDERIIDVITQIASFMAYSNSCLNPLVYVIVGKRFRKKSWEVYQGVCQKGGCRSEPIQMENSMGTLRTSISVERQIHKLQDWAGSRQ

[2] = molecular target: T2, Alpha-2A adrenergic receptor (Homo sapiens, UniProt P08913); assay type: functional, cell-based
T2 sequence (P08913 whole entry): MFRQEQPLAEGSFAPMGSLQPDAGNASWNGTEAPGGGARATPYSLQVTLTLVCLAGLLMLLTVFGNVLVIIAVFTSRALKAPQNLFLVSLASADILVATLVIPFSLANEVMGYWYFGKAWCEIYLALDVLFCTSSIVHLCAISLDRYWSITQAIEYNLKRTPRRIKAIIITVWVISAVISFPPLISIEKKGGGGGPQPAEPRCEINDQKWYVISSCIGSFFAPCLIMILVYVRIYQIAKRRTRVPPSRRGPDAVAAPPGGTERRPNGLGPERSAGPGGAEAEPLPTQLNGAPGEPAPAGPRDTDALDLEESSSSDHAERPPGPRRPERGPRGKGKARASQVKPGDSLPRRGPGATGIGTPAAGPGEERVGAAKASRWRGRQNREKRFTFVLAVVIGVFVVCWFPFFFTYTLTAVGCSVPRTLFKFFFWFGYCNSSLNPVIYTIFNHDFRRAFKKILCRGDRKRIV

Progesterone receptor = molecular target: T3, Progesterone receptor (Homo sapiens, UniProt P06401); assay type: functional
T3 sequence (P06401 whole entry): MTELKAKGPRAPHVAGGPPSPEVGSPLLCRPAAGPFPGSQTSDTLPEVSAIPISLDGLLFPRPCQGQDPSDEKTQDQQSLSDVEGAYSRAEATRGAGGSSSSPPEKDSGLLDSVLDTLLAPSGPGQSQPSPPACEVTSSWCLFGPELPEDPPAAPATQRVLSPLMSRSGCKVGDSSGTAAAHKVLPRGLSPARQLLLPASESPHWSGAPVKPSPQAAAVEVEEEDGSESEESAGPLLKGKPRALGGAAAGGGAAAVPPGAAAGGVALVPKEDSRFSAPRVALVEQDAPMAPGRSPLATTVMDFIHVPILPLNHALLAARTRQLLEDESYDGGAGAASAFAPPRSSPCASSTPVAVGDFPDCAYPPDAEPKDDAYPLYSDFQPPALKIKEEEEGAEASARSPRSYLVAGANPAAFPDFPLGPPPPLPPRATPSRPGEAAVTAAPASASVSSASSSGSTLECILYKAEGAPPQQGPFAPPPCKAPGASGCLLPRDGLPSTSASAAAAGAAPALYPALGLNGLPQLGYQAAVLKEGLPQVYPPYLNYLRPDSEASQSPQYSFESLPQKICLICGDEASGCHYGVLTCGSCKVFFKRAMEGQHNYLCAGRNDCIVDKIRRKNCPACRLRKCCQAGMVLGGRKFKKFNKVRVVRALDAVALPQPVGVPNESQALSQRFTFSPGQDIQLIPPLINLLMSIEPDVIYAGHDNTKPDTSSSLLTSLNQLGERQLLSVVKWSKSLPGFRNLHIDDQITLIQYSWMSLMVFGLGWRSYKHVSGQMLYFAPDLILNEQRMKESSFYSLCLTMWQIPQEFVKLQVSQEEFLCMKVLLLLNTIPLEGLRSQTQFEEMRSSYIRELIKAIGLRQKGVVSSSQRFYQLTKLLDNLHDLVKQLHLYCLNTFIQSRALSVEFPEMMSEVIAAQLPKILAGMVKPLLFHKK

[3] = molecular target: Beta-1 adrenergic receptor (Homo sapiens, UniProt P08588); assay type: functional
[4] = molecular target: Gamma-aminobutyric acid receptor subunit alpha-1 (Rattus norvegicus, UniProt P62813)
Vasopressin V1a receptor = Vasopressin V1a receptor (Homo sapiens, UniProt P37288)
[5] = molecular target: 5-hydroxytryptamine receptor 2A (Homo sapiens, UniProt P28223); assay type: functional, cell-based
[6] = molecular target: 5-hydroxytryptamine receptor 2B (Homo sapiens, UniProt P41595); assay type: functional, cell-based
[7] = molecular target: T2, Alpha-2A adrenergic receptor; assay type: functional, cell-based; remark: listed apart in the source
[8] = molecular target: T4, 5-hydroxytryptamine receptor 1A (Homo sapiens, UniProt P08908); assay type: functional, cell-based
T4 sequence (P08908 whole entry): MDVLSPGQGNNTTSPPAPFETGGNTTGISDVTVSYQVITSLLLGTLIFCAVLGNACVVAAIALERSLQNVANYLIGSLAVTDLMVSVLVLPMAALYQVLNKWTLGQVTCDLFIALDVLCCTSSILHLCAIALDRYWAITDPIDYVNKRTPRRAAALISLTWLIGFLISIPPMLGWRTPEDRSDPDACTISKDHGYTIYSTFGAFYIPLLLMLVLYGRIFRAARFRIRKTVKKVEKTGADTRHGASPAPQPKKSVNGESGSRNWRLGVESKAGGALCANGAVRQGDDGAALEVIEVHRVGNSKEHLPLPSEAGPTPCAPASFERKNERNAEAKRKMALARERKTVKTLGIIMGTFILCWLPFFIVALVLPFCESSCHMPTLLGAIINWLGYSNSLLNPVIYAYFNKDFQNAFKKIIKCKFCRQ

Melanocortin receptor 3 = Melanocortin receptor 3 (Homo sapiens, UniProt P41968)
Further: assay procedure not described here.

Sequence of Beta-1 adrenergic receptor (P08588 whole entry): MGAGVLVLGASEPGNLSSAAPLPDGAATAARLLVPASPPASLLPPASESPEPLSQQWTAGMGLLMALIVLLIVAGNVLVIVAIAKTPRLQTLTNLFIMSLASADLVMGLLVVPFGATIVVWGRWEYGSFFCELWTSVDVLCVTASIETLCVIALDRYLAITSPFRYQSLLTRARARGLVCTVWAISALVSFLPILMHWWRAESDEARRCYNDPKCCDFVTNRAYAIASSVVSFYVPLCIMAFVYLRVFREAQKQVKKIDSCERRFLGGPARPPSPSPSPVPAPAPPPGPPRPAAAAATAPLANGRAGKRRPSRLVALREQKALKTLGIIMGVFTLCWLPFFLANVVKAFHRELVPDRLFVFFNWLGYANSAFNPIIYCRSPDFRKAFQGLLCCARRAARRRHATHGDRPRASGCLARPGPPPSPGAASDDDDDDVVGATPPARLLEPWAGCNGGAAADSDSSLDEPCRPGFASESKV
Sequence of Melanocortin receptor 3 (P41968 whole entry): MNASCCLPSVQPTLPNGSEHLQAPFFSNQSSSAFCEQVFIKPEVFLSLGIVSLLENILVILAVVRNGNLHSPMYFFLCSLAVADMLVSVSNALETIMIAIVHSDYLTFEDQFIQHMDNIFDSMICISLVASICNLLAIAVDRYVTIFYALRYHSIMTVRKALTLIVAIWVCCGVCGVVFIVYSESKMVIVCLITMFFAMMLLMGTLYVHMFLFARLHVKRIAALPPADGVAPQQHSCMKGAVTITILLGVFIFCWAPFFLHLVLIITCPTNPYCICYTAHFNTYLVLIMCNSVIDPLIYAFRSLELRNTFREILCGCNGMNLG
Sequence of Prostaglandin G/H synthase 1 (P23219 whole entry): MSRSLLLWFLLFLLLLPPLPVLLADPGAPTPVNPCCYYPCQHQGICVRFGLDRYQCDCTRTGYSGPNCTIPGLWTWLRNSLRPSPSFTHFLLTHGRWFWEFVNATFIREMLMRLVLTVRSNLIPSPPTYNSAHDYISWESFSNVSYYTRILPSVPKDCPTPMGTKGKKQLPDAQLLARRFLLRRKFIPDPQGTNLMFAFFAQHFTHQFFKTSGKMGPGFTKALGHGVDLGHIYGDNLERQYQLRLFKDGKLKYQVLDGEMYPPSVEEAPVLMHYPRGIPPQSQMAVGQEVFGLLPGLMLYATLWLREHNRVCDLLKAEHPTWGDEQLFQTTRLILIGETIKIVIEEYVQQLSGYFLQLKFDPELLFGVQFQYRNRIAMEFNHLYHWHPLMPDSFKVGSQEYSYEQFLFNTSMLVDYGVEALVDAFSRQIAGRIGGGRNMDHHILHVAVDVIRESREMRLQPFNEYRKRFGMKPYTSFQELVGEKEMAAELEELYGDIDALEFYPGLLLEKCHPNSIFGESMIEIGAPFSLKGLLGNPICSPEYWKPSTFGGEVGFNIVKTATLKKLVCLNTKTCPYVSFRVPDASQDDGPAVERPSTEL
Sequence of Gamma-aminobutyric acid receptor subunit alpha-1 (P62813 whole entry): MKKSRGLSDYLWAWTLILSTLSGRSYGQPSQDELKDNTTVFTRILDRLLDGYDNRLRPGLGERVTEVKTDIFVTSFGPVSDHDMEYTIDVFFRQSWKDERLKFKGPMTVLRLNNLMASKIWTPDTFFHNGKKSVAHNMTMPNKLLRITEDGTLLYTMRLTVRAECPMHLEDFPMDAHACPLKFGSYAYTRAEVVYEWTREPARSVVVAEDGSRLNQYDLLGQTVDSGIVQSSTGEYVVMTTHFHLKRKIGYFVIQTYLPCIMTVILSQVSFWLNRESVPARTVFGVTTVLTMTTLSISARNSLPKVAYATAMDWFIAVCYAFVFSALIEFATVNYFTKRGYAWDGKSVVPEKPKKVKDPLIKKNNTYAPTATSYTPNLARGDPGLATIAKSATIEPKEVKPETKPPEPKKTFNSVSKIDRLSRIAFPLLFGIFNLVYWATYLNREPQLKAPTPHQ
Sequence of 5-hydroxytryptamine receptor 2B (P41595 whole entry): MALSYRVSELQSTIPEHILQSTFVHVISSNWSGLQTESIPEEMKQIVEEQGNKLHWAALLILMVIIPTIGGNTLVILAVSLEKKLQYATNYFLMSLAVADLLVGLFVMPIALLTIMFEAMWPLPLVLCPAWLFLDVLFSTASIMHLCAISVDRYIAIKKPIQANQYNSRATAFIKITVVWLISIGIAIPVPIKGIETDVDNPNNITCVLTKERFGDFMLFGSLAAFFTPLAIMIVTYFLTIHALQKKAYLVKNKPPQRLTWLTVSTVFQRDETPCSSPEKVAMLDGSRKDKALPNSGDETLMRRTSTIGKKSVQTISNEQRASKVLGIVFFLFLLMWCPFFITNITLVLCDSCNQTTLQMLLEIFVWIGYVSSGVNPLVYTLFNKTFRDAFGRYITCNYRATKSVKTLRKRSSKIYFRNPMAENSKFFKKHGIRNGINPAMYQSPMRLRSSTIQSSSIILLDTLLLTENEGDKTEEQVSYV
Sequence of Vasopressin V1a receptor (P37288 whole entry): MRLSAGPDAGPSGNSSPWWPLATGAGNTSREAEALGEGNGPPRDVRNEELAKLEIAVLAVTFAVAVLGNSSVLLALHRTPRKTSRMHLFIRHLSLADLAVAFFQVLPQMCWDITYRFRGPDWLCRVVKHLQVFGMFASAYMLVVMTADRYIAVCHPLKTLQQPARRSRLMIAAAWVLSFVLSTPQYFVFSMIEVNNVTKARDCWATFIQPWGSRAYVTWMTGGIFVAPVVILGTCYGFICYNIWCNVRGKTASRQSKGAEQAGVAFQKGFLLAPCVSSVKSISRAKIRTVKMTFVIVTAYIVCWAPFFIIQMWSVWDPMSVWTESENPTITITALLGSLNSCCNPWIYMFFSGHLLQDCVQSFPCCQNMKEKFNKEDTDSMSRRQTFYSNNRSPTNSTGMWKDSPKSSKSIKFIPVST
Sequence of D(1A) dopamine receptor (P21728 whole entry): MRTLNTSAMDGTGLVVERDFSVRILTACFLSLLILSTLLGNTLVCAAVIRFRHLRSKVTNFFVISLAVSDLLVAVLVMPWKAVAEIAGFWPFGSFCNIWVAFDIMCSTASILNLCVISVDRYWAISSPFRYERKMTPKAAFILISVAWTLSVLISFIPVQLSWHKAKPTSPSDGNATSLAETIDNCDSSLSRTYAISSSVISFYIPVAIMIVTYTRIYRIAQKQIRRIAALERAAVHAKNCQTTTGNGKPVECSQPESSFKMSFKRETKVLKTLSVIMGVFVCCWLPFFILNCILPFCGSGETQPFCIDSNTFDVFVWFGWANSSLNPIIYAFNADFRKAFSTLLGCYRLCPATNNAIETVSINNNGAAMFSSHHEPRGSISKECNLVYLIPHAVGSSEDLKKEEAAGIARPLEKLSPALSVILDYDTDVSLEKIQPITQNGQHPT
Sequence of 5-hydroxytryptamine receptor 2A (P28223 whole entry): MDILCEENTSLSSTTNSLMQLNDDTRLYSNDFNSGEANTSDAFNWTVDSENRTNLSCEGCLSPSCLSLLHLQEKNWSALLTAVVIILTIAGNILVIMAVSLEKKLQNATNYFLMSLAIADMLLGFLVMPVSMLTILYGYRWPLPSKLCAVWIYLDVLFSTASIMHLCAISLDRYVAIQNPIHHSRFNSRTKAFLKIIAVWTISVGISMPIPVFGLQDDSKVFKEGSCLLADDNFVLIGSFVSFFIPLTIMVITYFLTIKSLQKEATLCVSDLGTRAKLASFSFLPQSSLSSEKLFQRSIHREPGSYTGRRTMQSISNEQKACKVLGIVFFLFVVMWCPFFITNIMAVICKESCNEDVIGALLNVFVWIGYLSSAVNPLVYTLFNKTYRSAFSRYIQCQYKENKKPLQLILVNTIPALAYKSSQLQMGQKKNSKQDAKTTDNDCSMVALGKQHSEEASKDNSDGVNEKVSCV

Molecule: CN(C)c1ccc(C(=C2C=CC(=[N+](C)C)C=C2)c2ccc(N(C)C)cc2)cc1 [GENTIAN VIOLET]
- AC50 [1]: 11.8 µM

Molecule: Nc1ccc(S(N)(=O)=O)cc1 [SULFANILAMIDE]
- AC50 (D(1A) dopamine receptor): > 30 µM

- AC50 (B2 bradykinin receptor): > 30 µM
- AC50 [2]: > 30 µM
- AC50 (Progesterone receptor): > 30 µM
- AC50 [3]: > 30 µM
- AC50 [4]: > 30 µM
- AC50 (Vasopressin V1a receptor): > 30 µM
- AC50 [5]: > 30 µM
- AC50 [6]: > 30 µM
- AC50 [7]: > 30 µM
- AC50 [8]: > 30 µM
- AC50 (Melanocortin receptor 3): > 30 µM
Molecule: HYDROXOCOBALAMIN
